From publication PMC2991631 (Biochemical pharmacology, 2010)
Where two headings read alike, the source gives them in different places.

Tests used:
[1] = test system: hCE1 (CES1); conditions: hCE1 relative to hiCE; cited from earlier work
[2] = test system: carboxylesterases (CE) in human liver microsomal extracts; experiment: CE activity; assay type: biochemical; conditions: 10μM 876
[3] = test system: carboxylesterases (hiCE, hCE1) in human liver microsomal extracts; assay type: biochemical; conditions: for CPT-11 hydrolysis + 876 / Loss in CPT-11 hydrolysis + 876 / Loss in CPT-11 hydrolysis + 876 [%]: 10μM 876

## CCc1c2c(nc3ccc(OC(=O)N4CCC(N5CCCCC5)CC4)cc13)-c1cc3c(c(=O)n1C2)COC(=O)[C@]3(O)CC [CPT-11, 7-ethyl-10-[4-(1-piperidino)-1-piperidino]carbonyloxycamptothecin]
[1]
  Km for CPT-11, hCE1 higher than hiCE: ~ 25 fold

## O=S(=O)(Nc1c(F)c(F)c(NS(=O)(=O)c2ccc(Br)cc2)c(F)c1F)c1ccc(Br)cc1 [compound 876, N,N'-(2,3,5,6-tetrafluoro-1,4-phenylene)bis(4-bromobenzenesulfonamide)]
[2]; liver microsomal extract HG03
  CE activity + 876: 3759 ± 84 nmol/mg/min
  Loss in CE activity + 876: 2816 nmol/mg/min
  Loss in CE activity + 876 [%]: 42.8%
[2]; liver microsomal extract HG74
  CE activity + 876: 4341 ± 152 nmol/mg/min
  Loss in CE activity + 876: 2866 nmol/mg/min
  Loss in CE activity + 876 [%]: 39.8%
[2]; liver microsomal extract HG93
  CE activity + 876: 2938 ± 87 nmol/mg/min
  Loss in CE activity + 876: 1790 nmol/mg/min
  Loss in CE activity + 876 [%]: 37.9%
[2]; liver microsomal extract HG95
  CE activity + 876: 3285 ± 242 nmol/mg/min
  Loss in CE activity + 876: 1840 nmol/mg/min
  Loss in CE activity + 876 [%]: 35.9%
[2]; liver microsomal extract HG103
  CE activity + 876: 2224 ± 202 nmol/mg/min
  Loss in CE activity + 876: 1482 nmol/mg/min
  Loss in CE activity + 876 [%]: 40.0%
[2]; liver microsomal extract HH13
  CE activity + 876: 672 ± 47 nmol/mg/min
  Loss in CE activity + 876: 221 nmol/mg/min
  Loss in CE activity + 876 [%]: 24.8%
[2]; liver microsomal extract HH61
  CE activity + 876: 3925 ± 125 nmol/mg/min
  Loss in CE activity + 876: 1953 nmol/mg/min
  Loss in CE activity + 876 [%]: 33.2%
[2]; liver microsomal extract HH74
  CE activity + 876: 2235 ± 203 nmol/mg/min
  Loss in CE activity + 876: 1471 nmol/mg/min
  Loss in CE activity + 876 [%]: 39.7%
[2]; liver microsomal extract HK37
  CE activity + 876: 4052 ± 120 nmol/mg/min
  Loss in CE activity + 876: 2280 nmol/mg/min
  Loss in CE activity + 876 [%]: 36%
[2]; liver microsomal extract SD003
  CE activity + 876: 3434 ± 224 nmol/mg/min
  Loss in CE activity + 876: 1809 nmol/mg/min
  Loss in CE activity + 876 [%]: 34.5%
[2]; liver microsomal extract SD004
  CE activity + 876: 3460 ± 234 nmol/mg/min
  Loss in CE activity + 876: 2162 nmol/mg/min
  Loss in CE activity + 876 [%]: 38.5%
[2]; liver microsomal extract SD104
  CE activity + 876: 3493 ± 146 nmol/mg/min
  Loss in CE activity + 876: 1895 nmol/mg/min
  Loss in CE activity + 876 [%]: 35.2%
[2]; liver microsomal extract SD120
  CE activity + 876: 2610 ± 102 nmol/mg/min
  Loss in CE activity + 876: 1885 nmol/mg/min
  Loss in CE activity + 876 [%]: 41.9%
[2]; liver microsomal extract SD123
  CE activity + 876: 3874 ± 101 nmol/mg/min
  Loss in CE activity + 876: 2071 nmol/mg/min
  Loss in CE activity + 876 [%]: 34.8%
[2]; liver microsomal extract SD124
  CE activity + 876: 1997 ± 189 nmol/mg/min
  Loss in CE activity + 876: 1411 nmol/mg/min
  Loss in CE activity + 876 [%]: 41.4%
[2]; liver microsomal extract SD128
  CE activity + 876: 4144 ± 401 nmol/mg/min
  Loss in CE activity + 876: 2169 nmol/mg/min
  Loss in CE activity + 876 [%]: 34.4%
[2]; liver microsomal extract SD132
  CE activity + 876: 5018 ± 209 nmol/mg/min
  Loss in CE activity + 876: 3176 nmol/mg/min
  Loss in CE activity + 876 [%]: 38.8%
[2]; liver microsomal extract SD134
  CE activity + 876: 345 ± 28 nmol/mg/min
  Loss in CE activity + 876: 197 nmol/mg/min
  Loss in CE activity + 876 [%]: 36.4%
[2]; liver microsomal extract SD136
  CE activity + 876: 1719 ± 243 nmol/mg/min
  Loss in CE activity + 876: 1477 nmol/mg/min
  Loss in CE activity + 876 [%]: 46.2%
[3]; liver microsomal extract HG03
  CPT-11 hydrolysis + 876: 29.6 ± 0.64 pmol/mg/h
  Loss in CPT-11 hydrolysis + 876: 14.7 pmol/mg/h
  Loss in CPT-11 hydrolysis + 876 [%]: 33.1%
[3]; liver microsomal extract HG74
  CPT-11 hydrolysis + 876: 25.8 ± 1.1 pmol/mg/h
  Loss in CPT-11 hydrolysis + 876: 14.1 pmol/mg/h
  Loss in CPT-11 hydrolysis + 876 [%]: 35.3%
[3]; liver microsomal extract HG93
  CPT-11 hydrolysis + 876: 18.2 ± 0.42 pmol/mg/h
  Loss in CPT-11 hydrolysis + 876: 12.4 pmol/mg/h
  Loss in CPT-11 hydrolysis + 876 [%]: 40.5%
[3]; liver microsomal extract HG95
  CPT-11 hydrolysis + 876: 16.2 ± 0.21 pmol/mg/h
  Loss in CPT-11 hydrolysis + 876: 8.30 pmol/mg/h
  Loss in CPT-11 hydrolysis + 876 [%]: 33.9%
[3]; liver microsomal extract HG103
  CPT-11 hydrolysis + 876: 19.4 ± 0.14 pmol/mg/h
  Loss in CPT-11 hydrolysis + 876: 13.2 pmol/mg/h
  Loss in CPT-11 hydrolysis + 876 [%]: 40.1%
[3]; liver microsomal extract HH13
  CPT-11 hydrolysis + 876: 18.5 ± 0.14 pmol/mg/h
  Loss in CPT-11 hydrolysis + 876: 15.4 pmol/mg/h
  Loss in CPT-11 hydrolysis + 876 [%]: 45.4%
[3]; liver microsomal extract HH61
  CPT-11 hydrolysis + 876: 13.4 ± 0.07 pmol/mg/h
  Loss in CPT-11 hydrolysis + 876: 8.80 pmol/mg/h
  Loss in CPT-11 hydrolysis + 876 [%]: 39.7%
[3]; liver microsomal extract HH74
  CPT-11 hydrolysis + 876: 7.14 ± 0.23 pmol/mg/h
  Loss in CPT-11 hydrolysis + 876: 8.22 pmol/mg/h
  Loss in CPT-11 hydrolysis + 876 [%]: 53.5%
[3]; liver microsomal extract HK37
  CPT-11 hydrolysis + 876: 17.0 ± 0.57 pmol/mg/h
  Loss in CPT-11 hydrolysis + 876: 18.4 pmol/mg/h
  Loss in CPT-11 hydrolysis + 876 [%]: 51.9%
[3]; liver microsomal extract SD003
  CPT-11 hydrolysis + 876: 34.2 ± 0.92 pmol/mg/h
  Loss in CPT-11 hydrolysis + 876: 20.5 pmol/mg/h
  Loss in CPT-11 hydrolysis + 876 [%]: 37.5%
[3]; liver microsomal extract SD004
  CPT-11 hydrolysis + 876: 19.3 ± 1.0 pmol/mg/h
  Loss in CPT-11 hydrolysis + 876: 14.6 pmol/mg/h
  Loss in CPT-11 hydrolysis + 876 [%]: 43.0%
[3]; liver microsomal extract SD104
  CPT-11 hydrolysis + 876: 13.7 ± 0.07 pmol/mg/h
  Loss in CPT-11 hydrolysis + 876: 5.80 pmol/mg/h
  Loss in CPT-11 hydrolysis + 876 [%]: 29.8%
[3]; liver microsomal extract SD120
  CPT-11 hydrolysis + 876: 18.5 ± 0.14 pmol/mg/h
[3]; liver microsomal extract SD123
  CPT-11 hydrolysis + 876: 17 ± 0.14 pmol/mg/h
  Loss in CPT-11 hydrolysis + 876: 13.0 pmol/mg/h
  Loss in CPT-11 hydrolysis + 876 [%]: 43.2%
[3]; liver microsomal extract SD124
  CPT-11 hydrolysis + 876: 15.8 ± 0.28 pmol/mg/h
  Loss in CPT-11 hydrolysis + 876: 11.3 pmol/mg/h
  Loss in CPT-11 hydrolysis + 876 [%]: 41.7%
[3]; liver microsomal extract SD128
  CPT-11 hydrolysis + 876: 16.5 ± 0.35 pmol/mg/h
  Loss in CPT-11 hydrolysis + 876: 13.1 pmol/mg/h
  Loss in CPT-11 hydrolysis + 876 [%]: 44.3%
[3]; liver microsomal extract SD132
  CPT-11 hydrolysis + 876: 14.1 ± 0.50 pmol/mg/h
  Loss in CPT-11 hydrolysis + 876: 12.6 pmol/mg/h
  Loss in CPT-11 hydrolysis + 876 [%]: 47.2%
[3]; liver microsomal extract SD134
  CPT-11 hydrolysis + 876: 8.49 ± 0.18 pmol/mg/h
  Loss in CPT-11 hydrolysis + 876: 8.96 pmol/mg/h
  Loss in CPT-11 hydrolysis + 876 [%]: 51.3%
[3]; liver microsomal extract SD136
  CPT-11 hydrolysis + 876: 33.6 ± 0.64 pmol/mg/h
  Loss in CPT-11 hydrolysis + 876: 21.8 pmol/mg/h
  Loss in CPT-11 hydrolysis + 876 [%]: 39.3%
[3]; selective hiCE inhibitor 876
  effect on CPT-11 activation in liver microsomal samples: unable to reduce the levels of CPT-11 activation in liver microsomal samples to zero
